# Values quoted from earlier work in US9433620B2, “Pharmaceutical compositions of lurasidone” (CADILA HEALTHCARE LIMITED, priority 2011, dated 2016).
# Counter-ions that a name gives are not always drawn.
smiles,measurement,value
"O=C1[C@@H]2[C@H]3CC[C@H](C3)[C@@H]2C(=O)N1C[C@@H]1CCCC[C@H]1CN1CCN(c2nsc3ccccc23)CC1 [lurasidone, N-[4-[4-(1,2-benzisothiazol-3-yl)-1-piperazinyl]-(2R,3R)-2,3-tetramethyle-ne-butyl]-(1′R,2′S,3′R,4′S)-2,3-bicyclo[2,2,1]heptanedicarboxylmide hydrochloride]",solubility in water,less than several
